Measured values taken from BigSolDB 2.1.

O=C(O)CCCCCCCCCCC(=O)O
solubility (mole fraction)
Details | 288.15 K | 293.15 K | 298.15 K | 303.15 K | 308.15 K | 313.15 K | 318.15 K | 323.15 K | 328.15 K
in acetic acid | 0.00316 | 0.00434 | 0.00581 | 0.00776 | 0.0103 | 0.0136 | 0.0179 | 0.0235 | 0.0306
in acetone | 0.00286 | 0.00402 | 0.00543 | 0.00757 | 0.00995 | 0.0133 | 0.0178 | 0.0238 | 0.0318
in ethanol | 0.00793 | 0.0105 | 0.0138 | 0.0181 | 0.0236 | 0.0305 | 0.0394 | 0.0506 | 0.0648
in ethyl acetate | 0.00115 | 0.00165 | 0.00231 | 0.00327 | 0.00461 | 0.00638 | 0.00879 | 0.0121 | 0.0165
